Experimental data from the supplement of paper PMC11451515.

Test system: SEM cells
Experiment: cell viability relative to DMSO control; higher = less cytotoxic
Conditions: 48 h
Method in brief: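 NOMO1 or SEM (500 cells/well) or P12-Ichikawa (1000 cells/well) leukemia cells were adapted for at least four passages in each medium. They were seeded in 1536-well plates (5 μl) and pin-dosed with library compounds in DMSO over an 11-point threefold series, 47 μM to 0.79 nM. CellTiter-Glo One luminescence was read after 48 h at 37°C. Viability is the per-plate percentage relative to DMSO wells, with cell-free wells as background.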

[1] = RPMI 5 mM glucose + 10% FBS, 0.000781 µM
[2] = RPMI 5 mM glucose + 10% FBS, 0.00234 µM
[3] = RPMI 5 mM glucose + 10% FBS, 0.00702 µM
[4] = RPMI 5 mM glucose + 10% FBS, 0.0211 µM
[5] = RPMI 5 mM glucose + 10% FBS, 0.0632 µM
[6] = RPMI 5 mM glucose + 10% FBS, 0.19 µM
[7] = RPMI 5 mM glucose + 10% FBS, 0.569 µM
[8] = RPMI 5 mM glucose + 10% FBS, 1.71 µM
[9] = RPMI 5 mM glucose + 10% FBS, 5.12 µM
[10] = RPMI 5 mM glucose + 10% FBS, 15.4 µM
[11] = RPMI 5 mM glucose + 10% FBS, 46.1 µM
[12] = RPMI 5 mM glucose + 10% dialyzed FBS, 0.000781 µM
[13] = RPMI 5 mM glucose + 10% dialyzed FBS, 0.00234 µM
[14] = RPMI 5 mM glucose + 10% dialyzed FBS, 0.00702 µM
[15] = RPMI 5 mM glucose + 10% dialyzed FBS, 0.0211 µM
[16] = RPMI 5 mM glucose + 10% dialyzed FBS, 0.0632 µM
[17] = RPMI 5 mM glucose + 10% dialyzed FBS, 0.19 µM
[18] = RPMI 5 mM glucose + 10% dialyzed FBS, 0.569 µM
[19] = RPMI 5 mM glucose + 10% dialyzed FBS, 1.71 µM
[20] = RPMI 5 mM glucose + 10% dialyzed FBS, 5.12 µM
[21] = RPMI 5 mM glucose + 10% dialyzed FBS, 15.4 µM
[22] = RPMI 5 mM glucose + 10% dialyzed FBS, 46.1 µM
[23] = HPLM + 10% dialyzed FBS, 0.000781 µM
[24] = HPLM + 10% dialyzed FBS, 0.00234 µM
[25] = HPLM + 10% dialyzed FBS, 0.00702 µM
[26] = HPLM + 10% dialyzed FBS, 0.0211 µM
[27] = HPLM + 10% dialyzed FBS, 0.0632 µM
[28] = HPLM + 10% dialyzed FBS, 0.19 µM
[29] = HPLM + 10% dialyzed FBS, 0.569 µM
[30] = HPLM + 10% dialyzed FBS, 1.71 µM
[31] = HPLM + 10% dialyzed FBS, 5.12 µM
[32] = HPLM + 10% dialyzed FBS, 15.4 µM
[33] = HPLM + 10% dialyzed FBS, 46.1 µM

SMILES	cell viability [1] [%]	cell viability [2] [%]	cell viability [3] [%]	cell viability [4] [%]	cell viability [5] [%]	cell viability [6] [%]	cell viability [7] [%]	cell viability [8] [%]	cell viability [9] [%]	cell viability [10] [%]	cell viability [11] [%]	cell viability [12] [%]	cell viability [13] [%]	cell viability [14] [%]	cell viability [15] [%]	cell viability [16] [%]	cell viability [17] [%]	cell viability [18] [%]	cell viability [19] [%]	cell viability [20] [%]	cell viability [21] [%]	cell viability [22] [%]	cell viability [23] [%]	cell viability [24] [%]	cell viability [25] [%]	cell viability [26] [%]	cell viability [27] [%]	cell viability [28] [%]	cell viability [29] [%]	cell viability [30] [%]	cell viability [31] [%]	cell viability [32] [%]	cell viability [33] [%]
Cc1cnc(C(=O)O)c[n+]1[O-]	77.1	88.9	81	87	85.7	92.1	101	87.3	99.5	87.8	72.6	121	118	92.7	112	135	126	133	128	120	114	99.3											
Cn1cc(/C=C2\C(=O)Nc3cccnc32)c2ccccc21	92.5	92.5	122	114	99.3	105	108	115	98.4	31.8	21.9	105	106	124	101	122	119	114	119	91.7	30.2	28	90.8	104	113	117	125	121	115	111	112	44.8	30
COc1cc([C@H]2Oc3cc([C@H]4Oc5cc(O)cc(O)c5C(=O)[C@@H]4O)ccc3O[C@@H]2CO)ccc1O	101	118	117	116	121	118	104	120	123	120	108	93.5	114	124	124	133	126	124	132	118	120	112	63.6	105	109	112	117	121	121	105	110	98.6	92.7
CN1\C(=C(\O)C2=C(C=CC=C2)[S+]1([O-])=O)C(=O)NC3=CC=CC=N3	90	95	97.8	107	106	117	6.64	54.8	93.2	54.9	56.6	98.4	86.6	112	107	123	109	8.39	51.8	96.6	59.8	74.5	92.2	81.9	96.9	75	91.9	114	7.98	67.2	112	63.3	64.9
c1ccc(CNc2nc(N3CCOc4ccccc43)nc3c2CCCC3)cc1	91	88.6	87	89.4	101	96.2	89.5	95.9	91.4	77.7	71	75	91.3	96.5	96.8	95.5	103	106	108	94.5	82.7	82.9	87	94.6	88.7	96.9	102	109	93.3	106	98.5	89.9	83.2
CN1CCCC(CC1)N2\N=C(CC3=CC=C(Cl)C=C3)/C4=C(C=CC=C4)C2=O (centres undefined)	72.4	78.3	71.9	79.5	81.8	94.8	90.2	98.9	83.8	80.6	73.1	91.7	108	96.2	102	112	105	108	121	96.5	109	97.6	92.9	110	104	114	110	112	99.1	106	111	101	74.9
CN(C)CCN(C)C(=O)c1ccc(NC(=O)Nc2ccc(-c3nc(N4CCOCC4)c4ccn(CC(F)(F)F)c4n3)cc2)cc1	106	81.7	96.2	117	73.7	48	49.2	45.9	45.8	43.6	48.7	112	110	112	113	87.6	75.5	63.2	60.1	56.6	51	53.3	104	100	120	111	88	63.9	65.8	48.6	52.7	50.2	54.3
Nc1nc(N)c2nc(-c3cccc(O)c3)c(-c3cccc(O)c3)nc2n1	124	125	125	129	103	118	120	110	108	73.8	13.8	119	99.4	129	106	105	114	98.8	96.5	97.2	61	18.2	110	120	120	135	111	125	104	106	94.5	35	8.06
CC/1=C(/C(CC(=O)N1)C2=CC=C(C=C2)C(F)(F)F)C(=O)NC3=C(F)C=C4[NH]N=CC4=C3 (centres undefined)	102	101	94.2	94.7	84.3	92.8	108	92	108	31.9	31.8	97.9	80.9	102	84	96.8	97.1	100	96.7	109	28.2	32	81.9	94.4	92.3	104	91.8	89.4	95.9	89.3	114	29.9	26.5
ClC1=CC\2=C(NC(=O)\C(=C2N[C@@H]3CN4CCC3CC4)C5=NC6=C([NH]5)C=CC=C6)C=C1	95.8	87.5	83.9	71	67.4	22.8	16.2	11.2	6.87	2.16	2.19	99.5	108	98	86.8	63.2	25.4	19.1	15	8.88	2.81	3.39	116	98.7	102	89.2	53.3	27.7	24.2	21	8.58	3.33	5.63
CN1CCC[C@@H]1CCO[C@](C)(c1ccccc1)c1ccc(Cl)cc1	103	116	118	117	115	115	112	114	124	118	97.4	86.1	110	107	104	114	121	109	116	115	118	93	85.8	96.5	102	104	122	108	99.1	115	111	104	81.4
CN(C)CCOc1ccc(-c2nc(-c3ccncc3)c(-c3ccc4c(c3)CC/C4=N\O)[nH]2)cc1	107	104	106	124	123	113	126	114	122	109	19.6	115	109	111	113	113	119	125	134	119	115	68.5	108	111	106	106	110	101	114	117	112	109	24.8
C=CC(=O)Nc1cccc(Nc2nc(NC3CCC(N(C)C)CC3)nc3c2ncn3C(C)C)c1 (centres undefined)	116	107	101	113	117	106	86.9	70.1	10.8	4.33	3.98	105	111	109	110	115	107	82.5	40.9	9.22	3.79	3.4	107	106	112	112	105	95.9	81.9	40.6	9.48	4.66	4.5
O=C(O)/C=C/c1ccc(O)c(O)c1	108	96.8	90.3	114	110	90.6	109	106	98.5	39.1	5.15	99.2	117	111	112	103	114	104	91.7	105	50	5.58	90.4	102	93.6	122	106	93.6	98.5	105	112	78	20.2
COC[C@H](c1ccc(C(F)(F)F)cc1)N1CCN(C2(C)CCN(C(=O)c3c(C)ncnc3C)CC2)C[C@H]1C.O=C(O)/C=C\C(=O)O	66	94.5	82.9	97.5	85.6	87.6	84.5	99.6	92.4	83.8	59.6	85.2	93.2	97.1	108	88.6	97.3	103	104	84	98	65.8	80.5	98.2	105	93.5	90	104	90.2	92	99.8	95.4	61.8
